The values that follow come from patent publication US20110301235A1, “ORGANOSELENIUM COMPOUNDS AND USES THEREOF” (Alquest Therapeutics, Inc., priority 2009, published 2011).

Structures are written as SMILES. In brackets after ≈: the same amount, converted by molar mass.

In general, solubility refers to the concentration that dissolves in the medium under given conditions.

One data set can be described thus: Solubility measurements. The format is physicochemical. The note with it: 100 mM NaCl buffer, aqueous buffer, kinetic from dmso stock; 25 mM Hepes pH 7.4, 100 mM NaCl; 30 minutes at room temperature; centrifuged; absorbance at 260 nm; read-out: solubility (solubility limit). As for the experimental part: A 2-fold serial dilution of compounds was prepared in 25 mM Hepes pH 7.4, 100 mM NaCl. After 30 minutes at room temperature, precipitates were removed by centrifugation at 18,000×G for 15 min. The supernatant was transferred to a microtiter plate and absorbance at 260 nm was determined. The concentration at which there was no longer a linear increase in absorbance was determined as the solubility limit. The compounds in the examples generally had better solubilities than the reference compound 2-phenyl-1,2-benzisoselenazol-3(2H)-one (66-100 μM), with the compounds described in Examples 1-9 having solubilities of 300, 300, 100, 66-100, 300, 300-600, 1000, 1000, and 1000 μM.
As for `O=c1c2ccccc2[se]n1-c1ccccc1` [2-phenyl-1,2-benzisoselenazol-3(2H)-one, reference compound], the solubility at 30 min lay within 66 to 100 µM (≈ 18.1 to 27.4 µg/mL).

Still in this data set, the particulars now being: aqueous buffer, kinetic from dmso stock; 25 mM Hepes pH 7.4, 100 mM NaCl; 30 minutes at room temperature; centrifuged; absorbance at 260 nm; read-out: solubility (solubility limit).
Turning to `Cl.NCCS[Se]c1ccccc1C(=O)Nc1ccccc1` [Example 5], the solubility at 30 min was found to be 300 µM.
The same measure, in the same setting: the same measure for `CCOC(=O)[C@@H](N)CS[Se]c1ccccc1C(=O)Nc1ccccc1.Cl` [Example 3]: 100 µM.
With `Cl.N[C@@H](CCC(=O)N[C@@H](CS[Se]c1ccccc1C(=O)Nc1ccccc1)C(=O)NCC(=O)O)C(=O)O` [Example 9], the solubility at 30 min was found to be 1000 µM.
On the same count and under the same terms, the same measure for `CCOC(=O)CNC(=O)[C@H](CS[Se]c1ccccc1C(=O)Nc1ccccc1)NC(=O)CC[C@H](N)C(=O)O.Cl` [Example 8]: 1000 µM.

Staying with this data set, now noted: pH 7.4, aqueous buffer, kinetic from dmso stock.
`CC(C)(CO)[C@@H](O)C(=O)NCCC(=O)NCCS[Se]c1ccccc1C(=O)Nc1ccccc1` [Example 1] gave a solubility at 30 min of 300 µM (≈ 166 µg/mL).
For `O=C(Nc1ccccc1)c1ccccc1[Se]SCCS(=O)(=O)O` [Example 7], the solubility at 30 min stood at 1000 µM (≈ 416 µg/mL).
`CCOC(=O)[C@H](CS[Se]c1ccccc1C(=O)Nc1ccccc1)NC(C)=O` [Example 4] came in with a solubility at 30 min of 66 to 100 µM (≈ 30.7 to 46.5 µg/mL).
Compound `CC(=O)N[C@@H](CS[Se]c1ccccc1C(=O)Nc1ccccc1)C(=O)O` [Example 2] yielded a solubility at 30 min of 300 µM (≈ 131 µg/mL).
Compound `O=C(Nc1ccccc1)c1ccccc1[Se]SCCO` [Example 6] displayed a solubility at 30 min of 300 to 600 µM (≈ 106 to 211 µg/mL).
